Assay results taken from patent US20120010281A1, “ANTIMICROBIAL AND ANTI[…]” (THE TRUSTEES OF PRINCETON UNIVERSITY, priority 2010, published 2012).
In brackets after ≈: the same amount, converted by molar mass.

Test system: M. tuberculosis mc^27000
Test: microbe, parasite or virus in culture
Assay type: cell-based
Conditions: for MIC: Mycobacterium tuberculosis, 120 h, range of assayed concentrations that bounds the mean of three independent determinations, read-out: mc^27000 7H9 MIC; for inhibitory activity against Mtb mc^27000 (in words): comment on the Table 1 MIC values, relative to tiamulin

Structure (SMILES) | MIC [µg/mL] | inhibitory activity against Mtb mc^27000 (in words)
C=C1C[C@@H](OC(=O)CO)C2CCCC3(CCC(=O)C23)C[C@@H]1O (some centres unmarked) [Compound 4] | > 200 | –
C=C1C[C@@H](OC(=O)CSCCN(CC)CC)C2CCCC3(CCC(=O)C23)C[C@H]1O (some centres unmarked) [Compound 20c] | 12 to 25 (≈ 28.3 to 59 µM) | compares favorably to tiamulin
C=CC1(C)C[C@@H](OC(=O)CO)C2(C)C(C)CCC3(CCC(=O)C32)[C@@H](C)[C@@H]1O (some centres unmarked) [Pleuromutilin (1), Pleuromutilin, reference compound] | 25 to 50 (≈ 66 to 132 µM) | low micromolar MIC values
C=C[C@]1(C)C[C@@H](OC(=O)CSCCN(CC)CC)C2(C)C(C)CCC3(CCC(=O)C32)[C@@H](C)[C@@H]1O (some centres unmarked) [tiamulin (3), tiamulin, reference compound] | 12 to 25 (≈ 24.3 to 50.6 µM) | low micromolar MIC values
C=C1C[C@@H](OC(=O)CSCCN(CC)CC)C2CCCC3(CCC(=O)C23)C[C@@H]1O (some centres unmarked) [Compound 20a] | 50 to 100 (≈ 118 to 236 µM) | attenuated activity
CCN(CC)CCSCC(=O)O[C@H]1C/C(C)=C\CC23CCCC1C2C(=O)CC3 (some centres unmarked) [Compound 25] | 50 (≈ 123 µM) | moderate, yet significant, level of activity
